Reference: patent publication US8178699B2, “Modulators of CCR9 receptor and methods of use thereof” (Pfizer Inc., priority 2008, dated 2012)
Structures can show the parent of a compound that is named as a salt.

Target: T1, human CCR9 receptor (Homo sapiens, UniProt P51686)
T1 construct: expressed in transfected cells
T1 sequence (P51686 1-369): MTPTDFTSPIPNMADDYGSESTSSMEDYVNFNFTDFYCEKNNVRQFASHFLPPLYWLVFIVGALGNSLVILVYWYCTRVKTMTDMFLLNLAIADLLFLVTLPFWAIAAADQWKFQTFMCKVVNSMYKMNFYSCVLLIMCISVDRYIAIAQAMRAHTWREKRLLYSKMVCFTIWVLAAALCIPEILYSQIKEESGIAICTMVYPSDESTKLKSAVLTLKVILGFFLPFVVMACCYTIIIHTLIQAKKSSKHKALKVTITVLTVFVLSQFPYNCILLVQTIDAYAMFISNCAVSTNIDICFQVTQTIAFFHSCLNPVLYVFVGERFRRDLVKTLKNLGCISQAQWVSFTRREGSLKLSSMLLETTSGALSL
Test: CCR9 FLIPR/FlexStation Assay (inhibition of TECK induced calcium mobilization)
Format: cell-based
Conditions: CCR9 antagonist activity; TECK induced calcium mobilization in CCR9-Flp-CHO cells stably over expressing human CCR9; rhTECK at EC70; read-out: Binding IC50
Source text: Exemplary methods are described in US Publication Nos. US2004/0180892 and US2005/0049286, which are incorporated herein by reference. An exemplary assay for determining CCR9 antagonist activity of the compounds provided herein is CCR9 FLIPR/FlexStation Assay. In certain embodiments, the following protocol is used for the assay:
CCR9 FLIPR/FlexStation Assay Protocol
Calcium assay in FLIPR/FlexStation determines inhibitors of TECK induced calcium mobilization in CCR9-Flp-CHO cells that stably over express human CCR9 receptor. CCR9-Flp-CHO cells are seeded at 25,000 cells/well in a clear bottom, black wall 96-well plate (Greiner #655090) one day prior to assay. Cells are grown in a tissue culture incubator at 37° C. with 5% CO2 for 18 to 24 hours.
Wash buffer and dye loading buffer are prepared fresh each time the assay is performed. Wash buffer is prepared according to the following protocol: 20 ml 10×HBSS (Invitrogen Gibco #14065-056), 4 ml 1M HEPES (Sigma H3784), 174 ml sterile deionized water; then add 140 mg probenecid (Sigma P8761) dissolved in 2 ml 1M NaOH (Fisher S318) to solution and pH to 7.4. This wash buffer contains 1×HBSS, 20 mM HEPES and 2.5 mM probenecid. For one 96-well plate, dye loading buffer is prepared as following: 11 ml wash buffer, 44 μl Fluo-4/pluoronic acid mix (prepared from 22 μL aliquot of 2 mM Fluo-4 (Molecular Probes F14202, 1 mg/tube)+22 μl 20% pluronic F-127 (Molecular Probes P3000MP).
Cells are loaded with dye according to the protocol below:
1. Prepare wash buffer with 1×HBSS/HEPES at room temperature
2. Prepare loading buffer (keep in dark)
3. Aspirate culture media and wash with 100 μl wash buffer per well×1
4. Add 100 μl dye loading buffer to each well
5. Incubate at 37° C. for 30 minutes
6. Aspirate loading buffer
7. Wash with 100 μl wash buffer per well×3
8. Add 100 μl wash buffer per well
9. Incubate at 37° C. for 30 minutes
10. Assay plate with FLIPR or FlexStation
10 mM stock compounds in DMSO are prepared and diluted in DMSO to 1 mM. Compounds are diluted in wash buffer to make 8 point series dilutions containing same final concentration of DMSO (1%). Compounds are tested in duplicate wells for each point. Ligand rhTECK (R&D Systems 334-TK) was diluted to 6× of its EC70 with wash buffer. Appropriate amount of 6× ligand is added to each well. Data is analyzed using XLfit3 software to calculate IC50 value of antagonist activity for each compound.
CCR9 antagonist activity of exemplary compounds was determined using CCR9 FLIPR/FlexStation Assay as described in Section 4.4 and is provided in Table 1 below. The IC50 for the compounds are represented as follows: A≦100 nM; B>100-500 nM; C>500 nM.

IC50 [nM] | SMILES
≤ 100 | CC(C)(C)c1ccc(S(=O)(=O)Nc2ccsc2C(=O)O)c(Br)c1 [Example 1, 3-(2-bromo-4-tert-butylphenylsulfonamido)thiophene-2-carboxylic acid, sodium salt]
100 to 500 | CC(C)(C)c1ccc(S(=O)(=O)Nc2ccsc2C(=O)O)c(N2CCOCC2)c1 [Example 3, 3-[4-tert-butyl-2-(morpholin-4-yl)phenylsulfonamido]thiophene-2-carboxylic acid]
> 500 | COc1cc(S(=O)(=O)Nc2ccsc2C(=O)O)c(Cl)cc1F [Example 63, 3-(2-chloro-4-fluoro-5-methoxyphenylsulfonamido)thiophene-2-carboxylic acid, disodium salt]
≤ 100 | Cc1cc(C(C)(C)C)ccc1S(=O)(=O)Nc1ccsc1C(=O)O [Example 13, 3-(4-tert-butyl-2-methylphenylsulfonamido)thiophene-2-carboxylic acid, disodium salt]
> 500 | O=C(O)c1sccc1NS(=O)(=O)c1ccc2ccccc2c1 [Example 17, 3-(Naphthalene-2-sulfonamido)thiophene-2-carboxylic acid, disodium salt]
≤ 100 | CC(C)(C)c1ccc(S(=O)(=O)Nc2ccsc2C(=O)O)c(/C=C/C2CC2)c1 [Example 52, 3-[4-tert-butyl-2-(2-cyclopropylvinyl)phenylsulfonamido]thiophene-2-carboxylic acid, disodium salt]
> 500 | CN(c1ccsc1C(=O)O)S(=O)(=O)c1ccc(C(C)(C)C)cc1 [Example 15, 3-(4-tert-butyl-N-methylphenylsulfonamido)thiophene-2-carboxylic acid, sodium salt]
≤ 100 | COc1cc(C(C)(C)C)ccc1S(=O)(=O)Nc1ccsc1C(=O)O [Example 8, 3-(tert-butyl-2-methoxyphenylsulfonamido)thiophene-2-carboxylic acid, disodium salt]
> 500 | Cc1cc(C(C)(C)C)cc(C)c1S(=O)(=O)Nc1ccsc1C(=O)O [Example 62, 3-(4-tert-butyl-2,6-dimethylphenylsulfonamido)thiophene-2-carboxylic acid, disodium salt]
100 to 500 | COC/C=C/c1cc(C(C)(C)C)ccc1S(=O)(=O)Nc1ccsc1C(=O)O [Example 55, 3-[4-tert-butyl-2-(3-methoxyprop-1-enyl)phenylsulfonamido]thiophene-2-carboxylic acid, disodium salt]
≤ 100 | O=C(O)c1sccc1NS(=O)(=O)c1ccc(C(F)(F)F)cc1Br [Example 27, 3-[2-bromo-4-(trifluoromethyl)phenylsulfonamido]thiophene-2-carboxylic acid, disodium salt]
≤ 100 | CCCc1cc(C(C)(C)C)ccc1S(=O)(=O)Nc1ccsc1C(=O)O [Example 56, 3-(4-tert-butyl-2-propylphenylsulfonamido)thiophene-2-carboxylic acid, disodium salt]
> 500 | O=C(O)c1sccc1NS(=O)(=O)c1ccc(F)cc1C1CCCC1 [Example 35, 3-(2-cyclopentyl-4-fluorophenylsulfonamido)thiophene-2-carboxylic acid, disodium salt]
100 to 500 | CC(C)(C)c1ccc(S(=O)(=O)Nc2ccsc2C(=O)O)c(O)c1 [Example 9, 3-(4-tert-butyl-2-hydroxyphenylsulfonamido)thiophene-2-carboxylic acid, trisodium salt]
> 500 | CC(C)(C)c1ccc(S(=O)(=O)Nc2c(C(=O)O)sc3ncccc23)cc1 [Example 26, 3-(4-tert-butylphenylsulfonamido)thieno[2,3-b]pyridine-2-carboxylic acid, disodium salt]
≤ 100 | CCCCc1ccc(S(=O)(=O)Nc2ccsc2C(=O)O)cc1 [Example 38, 3-[4-(n-butylphenyl)sulfonamide]thiophene-2-carboxylic acid, disodium salt]
100 to 500 | CC(C)(C)c1ccc(S(=O)(=O)Nc2ccsc2C(=O)O)c(-c2cccc(F)c2)c1 [Example 54, 3-(5-tert-butyl-3′-fluorobiphenyl-2-ylsulfonamido)thiophene-2-carboxylic acid, disodium salt]
> 500 | CC(C)(C)c1ccc(S(=O)(=O)Nc2ccsc2C(=O)O)c(-c2ccccc2)c1 [Example 46, 3-(5-tert-butylbiphenyl-2-ylsulfonamido)thiophene-2-carboxylic acid, disodium salt]
> 500 | O=C(O)c1sccc1NS(=O)(=O)c1ccc(Br)cc1 [Example 20, 3-(4-bromophenylsulfonamido)thiophene-2-carboxylic acid, disodium salt]
> 500 | O=C(O)c1sccc1NS(=O)(=O)c1cccc(-c2ccccc2)c1 [Example 40, 3-(biphenyl-3-ylsulfonamido)thiophene-2-carboxylic acid, disodium salt]
≤ 100 | CCCCc1ccc(S(=O)(=O)Nc2ccsc2C(=O)O)c(Cl)c1 [Example 19, 3-(4-butyl-2-chlorophenylsulfonamido)thiophene-2-carboxylic acid, disodium salt]
> 500 | CC(C)(C)c1ccc(S(=O)(=O)Nc2ccsc2C(=O)O)c(/C=C/C(=O)O)c1 [Example 30, 3-[4-tert-butyl-2-(2-carboxyvinyl)phenylsulfonamido]thiophene-2-carboxylic acid, trisodium salt]
> 500 | CC(C)c1ccccc1-c1cccc(S(=O)(=O)Nc2ccsc2C(=O)O)c1 [Example 43, 3-(2′-isopropylbiphenyl-3-ylsulfonamido)thiophene-2-carboxylic acid, disodium salt]
≤ 100 | CC(C)(C)c1ccc(S(=O)(=O)Nc2ccsc2C(=O)O)c(CCc2ccccc2)c1 [Example 11, 3-(4-tert-butyl-2-phenethylphenylsulfonamido)thiophene-2-carboxylic acid, disodium salt]
> 500 | Cc1cc(C)cc(-c2cccc(S(=O)(=O)Nc3ccsc3C(=O)O)c2)c1 [Example 42, 3-(3′,5′-dimethylbiphenyl-3-ylsulfonamido)thiophene-2-carboxylic acid, disodium salt]
> 500 | CC(C)(C)c1ccc(S(=O)(=O)Nc2c(C(=O)O)sc3ccc(F)cc23)cc1 [Example 25, 3-(4-tert-butylphenylsulfonamido)-5-fluorobenzo[b]thiophene-2-carboxylic acid, disodium salt]
≤ 100 | CC(C)(C)c1ccc(S(=O)(=O)Nc2ccsc2C(=O)O)c(C#N)c1 [Example 10, 3-(4-tert-butyl-2-cyanophenylsulfonamido)thiophene-2-carboxylic acid, disodium salt]
≤ 100 | CCC(C)c1ccc(S(=O)(=O)Nc2ccsc2C(=O)O)cc1 (stereo not drawn) [Example 14, 3-(4-sec-butylphenylsulfonamido)thiophene-2-carboxylic acid, disodium salt]
100 to 500 | CCCCCc1cc(C(C)(C)C)ccc1S(=O)(=O)Nc1ccsc1C(=O)O [Example 58, 3-(4-tert-butyl-2-pentylphenylsulfonamido)thiophene-2-carboxylic acid, disodium salt]
> 500 | Cc1cccc(C)c1-c1cccc(S(=O)(=O)Nc2ccsc2C(=O)O)c1 [Example 41, 3-(2′,6′-dimethylbiphenyl-3-ylsulfonamido)thiophene-2-carboxylic acid, disodium salt]
